Assay in all cases: Antibiogram by diffusion technique (CA-SFM 2008)
What all share (assay type): cell-based

In one assay the test system is E. coli strain 9003. The source says:
(§1) Three clinical categories were selected for interpretation of the in vitro sensitivity tests: sensitive (S), resistant (R) and intermediate (I). • The strains categorized S are those for which the probability of therapeutic success is high in the case of treatment by systemic route with the dosing schedule recommended in the summary of product characteristics (SPC) prepared by the French Health Products Safety Agency (AFSSAPS). • The strains categorized R are those for which there is a high probability of therapeutic failure regardless of treatment type and antibiotic dose. • The strains categorized I are those for which therapeutic success cannot be predicted. These strains form a heterogeneous group for which the results obtained in vitro are not predictive of therapeutic success. […] The intermediate category is also a buffer zone which takes into account technical and biological uncertainties.
(§2) The sensitivity of strains to antibiotics was determined by a diffusion technique according to the 2008 recommendations by the Antibiogram Committee of the French Microbiology Society (CA-SFM).
(§3) In terms of critical concentrations and diameters, strains are categorized as follows: • sensitive (S): strains for which the MIC of the antibiotic tested is less than or equal to the lower critical concentration c, which is equivalent to a diameter greater than or equal to the critical diameter D; • resistant (R): strains for which the MIC of the antibiotic tested are greater than the upper critical concentration C, corresponding to a diameter less than the critical diameter d; • intermediate sensitivity (I): strains for which the MIC of the antibiotic tested and the corresponding diameter are between the two critical concentrations and the two critical diameters.
(§4) The tests were carried out on Mueller-Hinton agar. An inoculum adjusted to 0.5 on the McFarland scale is then diluted to 1/100. Petri dishes are inoculated by swabbing. The dishes are read after 24 hours of incubation at 37° C.
(§5) The raw results are then interpreted according to the interpretative reading rules of the CA-SFM.

The test system of assay [1] is Enterobacter aerogenes (9004). The conditions noted are these: strain 9004.
Excerpt: as §1, §2, §3, §4, §5

In a further assay the test system is E. coli ATCC 25922. More on the design: Diameter (D): unit not given here. The source says:
Three clinical categories were selected for interpretation of the in vitro sensitivity tests: sensitive (S), resistant (R) and intermediate (I). • The strains categorized S are those for which the probability of therapeutic success is high in the case of treatment by systemic route with the dosing schedule recommended in the summary of product characteristics (SPC) prepared by the French Health Products Safety Agency ([…]). • The strains categorized R are those for which there is a high probability of therapeutic failure regardless of treatment type and antibiotic dose. • The strains categorized I are those for which therapeutic success cannot be predicted. These strains form a heterogeneous group for which the results obtained in vitro are not predictive of therapeutic success. […] The intermediate category is also a buffer zone which takes into account technical and biological uncertainties. The sensitivity of strains to antibiotics was determined by a diffusion technique according to the 2008 recommendations by the Antibiogram Committee of the French Microbiology Society (CA-SFM). In terms of critical concentrations and diameters, strains are categorized as follows: • sensitive (S): strains for which the MIC of the antibiotic tested is less than or equal to the lower critical concentration c, which is equivalent to a diameter greater than or equal to the critical diameter D; • resistant (R): strains for which the MIC of the antibiotic tested are greater than the upper critical concentration C, corresponding to a diameter less than the critical diameter d; • intermediate sensitivity (I): strains for which the MIC of the antibiotic tested and the corresponding diameter are between the two critical concentrations and the two critical diameters. The tests were carried out on Mueller-Hinton agar. An inoculum adjusted to 0.5 on the McFarland scale is then diluted to 1/100. Petri dishes are inoculated by swabbing. The dishes are read after 24 hours of incubation at 37° C. The raw results are then interpreted according to the interpretative reading rules of the CA-SFM. Two examples: all strains of methicillin-resistant Staphylococcus are resistant to all beta-lactams, and the same is true for gentamicin-resistant strains; golden staph is necessarily resistant to kanamycin (and amikacin) and tobramycin. The quality of the diffusion method is controlled using E. coli strain ATCC 25922.

Another assay deals with E. coli strain 8154. More on the design: D: unit not given here.
Excerpt: as §1, §2, §3, §4, §5

Another assay relates to E. coli strain 8155. The arrangement: D: unit not given here.
Excerpt: as §1, §2, §3, §4, §5

Another assay has as its system E. coli strain 8156. The arrangement: D: unit not given here.
Excerpt: as §1, §2, §3, §4, §5

The subject of another assay is E. coli strain 8157. The arrangement: D: unit not given here.
Excerpt: as §1, §2, §3, §4, §5

The subject of assay [2] is Pseudomonas aeruginosa strain 8128. The arrangement: D: unit not given here.
Excerpt: as §1, §2, §3, §4, §5

For assay [3], the system named is Pseudomonas aeruginosa strain 8129. More on the design: D: unit not given here.
Excerpt: as §1, §2, §3, §4, §5

Assay [4] relates to Pseudomonas aeruginosa strain 8132. The arrangement: D: unit not given here.
Excerpt: as §1, §2, §3, §4, §5

Assay [5] relates to Pseudomonas aeruginosa strain 8134. The arrangement: D: unit not given here.
Excerpt: as §1, §2, §3, §4, §5

In assay [6] the test system is strain 9007, Pseudomonas aeruginosa, with VIM-2 carbapenemase.
Excerpt: as §1, §2, §3, §4, §5

Assay [7] has as its system strain 9010, Acinetobacter baumannii, with VEB-1 ESBL.
Excerpt: as §1, §2, §3, §4, §5

For assay [8], the system named is golden staph (S. aureus) strain 8147. More on the design: D: unit not given here.
Excerpt: as §1, §2, §3, §4, §5

In assay [9] the test system is golden staph (S. aureus) strain 8239. More on the design: D: unit not given here.
Excerpt: as §1, §2, §3, §4, §5

Assay [10] deals with golden staph (S. aureus) strain 8240. The arrangement: D: unit not given here.
Excerpt: as §1, §2, §3, §4, §5

Another assay relates to Enterococcus strain 8152. More on the design: Diameter: unit not given here.
Excerpt: as §1, §2, §3, §4, §5

The test system of the next assay is Enterococcus strain 8153. More on the design: Diameter: unit not given here.
Excerpt: as §1, §2, §3, §4, §5

As for `C[C@@H](O)[C@H]1C(=O)N2C(C(=O)O)=C(S[C@@H]3CN[C@H](C(=O)Nc4cccc(C(=O)O)c4)C3)[C@H](C)[C@H]12` [Eratpenem], the Category entry (in the assay with E. coli strain 9003; in assay [1]) was “S” each time.

Regarding `CO/N=C(\C(=O)N[C@@H]1C(=O)N2C(C(=O)O)=C(COC(C)=O)CS[C@H]12)c1csc(N)n1` [Cefotaxime], the Category entry (with E. coli strain 9003; in assay [1]) was “R” each time.

As to Bactrim, the Category result was “S” in the assay with E. coli strain 9003 and “R” in [1].

With `CO/N=C(\C(=O)N[C@@H]1C(=O)N2C(C(=O)[O-])=C(C[N+]3(C)CCCC3)CS[C@H]12)c1csc(N)n1` [Cefepime], the “Category (Cat.)” value with E. coli ATCC 25922 is recorded as “S”. For the same molecule, the “Diameter (D)” value in the assay on E. coli ATCC 25922 is listed as 25. The Cat. result (with E. coli strain 8154; in the assay with E. coli strain 8155; with E. coli strain 8156; with E. coli strain 8157; in assay [2]; in [3]) was “S” in each case. The Cat. entry in assay [4] and in assay [5] was “S” throughout. Besides, the Category entry in the assay with E. coli strain 9003 is reported as “R”; in assay [1], “R”; in [6], “S”; in assay [7], “R”.

In the case of Colimycin, the Category entry (in the assay with E. coli strain 9003; in [1]) was “S” in each case.

With Pristinamycin, the Cat. entry in assay [8], in assay [9] and in assay [10] was “S” in each case. Besides, the values for the D in assay [8], in [9] and in assay [10] were 29, 32 and 27, respectively. Moreover, the Category entry with Enterococcus strain 8152 and with Enterococcus strain 8153 was “S” throughout. The Diameter is 23 with Enterococcus strain 8152 and 22 in the assay with Enterococcus strain 8153.

Turning to `CCn1cc(C(=O)O)c(=O)c2cc(F)c(N3CCNCC3)cc21` [Noroxin], the Category result (in the assay on E. coli strain 9003; in assay [1]) was “R” in each case.

Take `C[C@@H](O)[C@H]1C(=O)N2C(C(=O)O)=C(SCCN=CN)C[C@H]12` [Imipenem]: the “Category (Cat.)” value in the assay with E. coli ATCC 25922 is “S”. Besides, the “Diameter (D)” value in the assay on E. coli ATCC 25922 is given as 34. Besides, the Cat. result is on record as “S” in the assay on E. coli strain 8154; “S” in the assay on E. coli strain 8155; “S” in the assay with E. coli strain 8156; “I” in the assay on E. coli strain 8157; “I” in assay [2]; “S” in [3]. The Cat. entry in [4] is listed as “R”; in assay [5], “S”. Further, the D is reported as 33 in the assay on E. coli strain 8154; 34 in the assay with E. coli strain 8155; 34 with E. coli strain 8156; 20 with E. coli strain 8157; 18 in [2]; 36 in [3]. Further, the D was found to be 13 in [4] and 26 in [5]. Further, the Category entry is given as “S” in the assay on E. coli strain 9003, “S” in [1], “R” in assay [6] and “S” in assay [7].

Turning to `CC(C)(O/N=C(\C(=O)N[C@@H]1C(=O)N2C(C(=O)[O-])=C(C[n+]3ccccc3)CS[C@H]12)c1csc(N)n1)C(=O)O` [Ceftazidime], in the assay with E. coli ATCC 25922, the “Category (Cat.)” value is on record as “S”. The “Diameter (D)” value with E. coli ATCC 25922 turned out to be 25. For the same molecule, the Cat. entry with E. coli strain 8154 is “S”; in the assay on E. coli strain 8155, “S”; in the assay with E. coli strain 8156, “S”; in the assay on E. coli strain 8157, “S”; in assay [2], “S”; in assay [3] it was “R”. The Cat. entry in [4] and in assay [5] was “S” throughout. Moreover, the D with E. coli strain 8154 stood at 30; in the assay on E. coli strain 8155, 30; in the assay with E. coli strain 8156 it was 33; in the assay on E. coli strain 8157, 30; in assay [2], 25; in [3], 0. Moreover, the D was found to be 26 in [4] and 25 in assay [5]. Besides, the Category result with E. coli strain 9003 is recorded as “R”; in [1] it was “R”; in assay [6], “S”; in [7], “R”.

Consider `NCC[C@H](O)C(=O)N[C@@H]1C[C@H](N)[C@@H](O[C@H]2O[C@H](CN)[C@@H](O)[C@H](O)[C@H]2O)[C@H](O)[C@H]1O[C@H]1O[C@H](CO)[C@@H](O)[C@H](N)[C@H]1O` [Amikacin], for which the Category result with E. coli strain 9003 was “S”; in assay [1] it was “I”.

`CCn1cc(C(=O)O)c(=O)c2ccc(C)nc21` [Nalidixic acid]: the “Category (Cat.)” value in the assay on E. coli ATCC 25922 is “S”. The “Diameter (D)” value in the assay with E. coli ATCC 25922 turned out to be 28. Further, the Cat. entry in the assay on E. coli strain 8154 was “S”; in the assay on E. coli strain 8155, “S”; in the assay with E. coli strain 8156, “S”; in the assay with E. coli strain 8157, “R”; in assay [2], “R”; in [3], “R”. The Cat. result in assay [4] and in assay [5] was “R” in each case. For the same molecule, the D in the assay with E. coli strain 8154 came out at 24; in the assay with E. coli strain 8155 it was 28; in the assay with E. coli strain 8156 it was 27; in the assay with E. coli strain 8157, 0; in assay [2] it was 0; in assay [3], 0. Also, the D in assay [4] and in [5] was 0 each time. Also, the Category entry in assay [6] and in assay [7] was “R” each time.

Regarding `CO[C@@]1(NC(=O)Cc2cccs2)C(=O)N2C(C(=O)O)=C(COC(N)=O)CS[C@@H]21` [Cefoxitin], in the assay with E. coli ATCC 25922, the “Category (Cat.)” value is “S”. In addition, the “Diameter (D)” value in the assay on E. coli ATCC 25922 turned out to be 24. Besides, the Cat. result in the assay with E. coli strain 8154 was “S”; in the assay on E. coli strain 8155, “S”; with E. coli strain 8156 it was “S”; in the assay on E. coli strain 8157 it was “S”; in assay [2], “R”; in assay [3], “R”. The Cat. result in assay [4] and in [5] was “R” each time. Moreover, the D in the assay on E. coli strain 8154 came to 26; in the assay with E. coli strain 8155, 25; in the assay with E. coli strain 8156 it was 26; in the assay with E. coli strain 8157, 30; in assay [2], 0; in assay [3], 0. For the same molecule, the D in assay [4] and in assay [5] was 0 in each case. The Category result with Enterococcus strain 8152 was “R”; with Enterococcus strain 8153, “S”; in [6], “R”; in assay [7], “R”. For the same molecule, the values for the Diameter in the assay with Enterococcus strain 8152 and in the assay with Enterococcus strain 8153 were 0 and 25, respectively.
